In patent US12186354B2, “Lespedeza capitata extract for use in the field of hair care” (priority 2018, dated 2025):

Key:
5α-reductase = 5α-reductase activity (DHT/testosterone ratio) in dermal papilla cells, C14 testosterone metabolism; assay type: cell-based, human; details: 10 μM, incubation 24 h+24 h
JAK1/2-STAT3 pathway = test: IL-6-induced STAT3 phosphorylation in follicular keratinocytes of the outer root sheath (ORS); assay type: cell-based, human; details: 5 μM, 1 h pre-treatment, IL-6 100 ng/ml 15 minutes

Row | Compound | % inh (DHT/testosterone ratio, relative to the control condition) (5α-reductase) | Mean DHT/testosterone ratio (5α-reductase activity) (5α-reductase) | % of STAT phosphorylated, Mean (JAK1/2-STAT3 pathway)
1 | CC(C)(C)NC(=O)[C@H]1CC[C@H]2[C@@H]3CC[C@H]4NC(=O)C=C[C@]4(C)[C@H]3CC[C@]12C [Finasteride, finasteride] | 94.2% | 0.02 | –
2 | N#CC[C@H](C1CCCC1)n1cc(-c2ncnc3[nH]ccc23)cn1 [Ruxolitinib, ruxolitinib] | – | – | 102%
